Measurements: ChEMBL document CHEMBL4342426, “Structure-activity relationship of 4-azaindole-2-piperidine derivatives as agents against Trypanosoma cruzi” (Bioorg Med Chem Lett, 2020)
pIC50: −log10 of the molar value.

Experiments:
cells = details: Homo sapiens, MRC-5 SV2, 72 h
Description: (§1) Cytotoxicity against human MRC5 SV2 cells assessed as reduction in cell viability incubated for 3 days by fluorimetry

Macrophage = assay: cells; details: Mus musculus, 72 h
Description: (§2) Cytotoxicity against mouse peritoneal Macrophage cells assessed as reduction in cell viability incubated for 3 days by fluorimetry

in vitro [1] = details: human, MRC5 SV2 cells
Description: as §1

in vitro [2] = details: human, liver microsomes
Description: Metabolic stability in human liver microsomes assessed as intrinsic clearance at 0.5 uM incubated for 30 mins by LC-MS/MS analysis

in vitro [3] = details: mouse, liver microsomes
Description: Metabolic stability in mouse liver microsomes assessed as intrinsic clearance at 0.5 uM incubated for 30 mins by LC-MS/MS analysis

physchem = details: buffer, pH 7.4
Description: Lipophilicity, logD of compound at pH 7.4 by HPLC analysis

in vitro [4] = details: human, MRC5 SV2 cells; remark: listed apart in the source
Description: Selectivity index, ratio of IC50 for human MRC5 SV2 cells to IC50 for Trypanosoma cruzi Tulahuen CL2 amastigotes infected in human MRC5 SV2 cells

in vitro [5] = details: mouse, peritoneal macrophages
Description: as §2

in vitro [6] = details: mouse, peritoneal macrophages; remark: listed apart in the source
Description: Selectivity index, ratio of IC50 for mouse peritoneal macrophage to IC50 for Leishmania infantum MHOM/MA(BE)/67/ITMAP263 infected in mouse peritoneal macrophage

Trypanosoma cruzi = assay: microbe, parasite or virus in culture; details: Tulahuen CL2, MRC-5 SV2, 168 h
Description: Antitrypanosomal activity against Trypanosoma cruzi Tulahuen CL2 amastigotes infected in human MRC5 SV2 cells incubated for 7 days by chlorophenol red beta-D-galactopyranoside substrate based spectrophotometric assay

Trypanosoma brucei = assay: microbe, parasite or virus in culture; details: Squib 427, 72 h
Description: Antitrypanosomal activity against Trypanosoma brucei Squib 427 assessed as reduction in parasite growth incubated for 72 hrs by resazurin dye based fluorimetric analysis

[7] = test system: Trypanosoma brucei rhodesiense; assay: microbe, parasite or virus in culture; details: STIB900, 72 h
Description: Antiprotozoal activity against Trypanosoma brucei rhodesiense STIB900 trypomastigotes incubated for 72 hrs by resazurin dye based fluorimetric analysis

Leishmania infantum = assay: microbe, parasite or virus in culture; details: for pIC50: MHOM/MA(BE)/67/ITMAP263, 120 h; for IC90: MHOM/MA(BE)/67/ITMAP263, in Mus musculus, 120 h
Description: Antileishmanial activity against amastigote stage of Leishmania infantum MHOM/MA(BE)/67/ITMAP263 infected in mouse peritoneal macrophage assessed as parasite growth inhibition incubated for 5 days by Giemsa staining based assay

in vitro [8] = details: human, MRC5 SV2 cells; remark: listed apart in the source
Description: Selectivity index, ratio of IC50 for human MRC5 SV2 cells to IC50 for Trypanosoma brucei rhodesiense STIB900 trypomastigotes

in vitro [9] = details: PAMPA
Description: Effective permeability of compound by PAMPA assay

in vitro [10] = details: mouse, liver microsomes; remark: listed apart in the source
Description: Metabolic stability in mouse liver microsomes assessed as fraction unbound at 0.5 uM incubated for 30 mins by LC-MS/MS analysis

| Structure (SMILES) | pIC50 (cells) | pIC50 (Macrophage) | IC90 at 72 h (in vitro [1]) [µM] | CLint scaled at 0.5 h, 0.5 µM (in vitro [2]) [mL/min/kg] | microsomal CLint at 0.5 h, 0.5 µM (in vitro [2]) [µL/min/mg] | CLint scaled at 0.5 h, 0.5 µM (in vitro [3]) [mL/min/kg] | microsomal CLint at 0.5 h, 0.5 µM (in vitro [3]) [µL/min/mg] | logD (physchem) | selectivity ratio (in vitro [4]) | IC90 at 72 h (in vitro [5]) [µM] | pIC50 (Trypanosoma cruzi) | IC90 (Trypanosoma cruzi) [µM] | pIC50 (Trypanosoma brucei) | IC90 (Trypanosoma brucei) [µM] | pIC50 [7] | IC90 [7] [µM] | pIC50 (Leishmania infantum) | IC90 (Leishmania infantum) [µM] | selectivity ratio (in vitro [8]) | Papp (in vitro [9]) [×10⁻⁶ cm/s] | also measured |
| --- | --- | --- | --- | --- | --- | --- | --- | --- | --- | --- | --- | --- | --- | --- | --- | --- | --- | --- | --- | --- | --- |
| CC(C)c1cc(C(=O)N2CCCC(O)(c3cc4ncccc4[nH]3)C2)on1 (configuration not stated) | 4.19 to 4.25 | 4.19 | 64 | 31 to 38.5 | 23 to 26.6 | 616 to 2560 | 155 to 600 | 2.26 | 1.9 | 64 | 4.23 to 5.08 | 15.6 to 64 | 4.19 | 64 | 4.19 to 4.29 | 64 | 4.19 to 4.31 | 64 | – | – | selectivity ratio (in vitro [6]): 1.14 |
| O=C(c1ccc(F)cc1)N1CCCC(c2cc3nc(C(F)(F)F)ccc3[nH]2)C1 (configuration not stated) | 4.19 | 4.19 | 64 | 118 | 77.6 | 1110 | 247 | 3.88 | – | 64 | 4.19 | 64 | 4.19 | 64 | 4.54 | 57.5 | 4.19 | 64 | 2.19 | 12.2 | fraction unbound at 0.5 h, 0.5 µM (in vitro [10]): 0.713 |
| O=C(c1cc(C(F)(F)F)no1)N1CCCC(c2cc3ncc(Br)cc3[nH]2)C1 (configuration not stated) | 4.19 | 4.19 | 64 | 193 | 87.8 | 2800 | 431 | 4.27 | – | 64 | 4.19 | 64 | 4.19 | 64 | 4.64 | 62.7 | 4.24 | 64 | 2.8 | 7.99 | fraction unbound at 0.5 h, 0.5 µM (in vitro [10]): 0.491 |
| O=C(c1ccccc1)N1CC=C(c2cc3ncccc3[nH]2)CC1 | 4.19 | 4.19 | 64 | < 33.3 | < 23 | 1310 | 305 | 2.89 | 26.8 | 64 | 5.62 | 12.3 | 4.19 | 64 | 4.52 | 64 | 4.61 | 46.1 | 2.1 | 1.65 | – |
| O=C(c1cc(C(F)(F)F)no1)N1CCCC(c2cc3ncccc3[nH]2)C1 (configuration not stated) | 4.19 | 4.19 | 64 | 323 | 184 | 2330 | 449 | 3.42 | 15.7 | 64 | 5.39 | 45.3 | 4.19 | 64 | 4.39 | 60.9 | 4.19 | 64 | 1.61 | 3.45 | fraction unbound at 0.5 h, 0.5 µM (in vitro [10]): 0.615 |
| CC(C)(C)c1cc(C(=O)N2CCCC(c3cc4ncccc4[nH]3)C2)on1 (configuration not stated) | 4.19 | 4.19 | 64 | 321 | 177 | 2150 | 403 | 3.4 | 29.4 | 64 | 5.66 | 64 | 4.19 | 64 | 4.46 | 64 | 4.19 | 64 | 1.83 | 2.97 | fraction unbound at 0.5 h, 0.5 µM (in vitro [10]): 0.598 |
| O=C(Nc1ccc(-c2cc3ncccc3[nH]2)cc1)c1ccccc1 | 4.19 | 4.34 | 64 | ≥ 105 | 97.5 | ≥ 597 | 187 | 3.86 | 2.54 | 59.7 | 4.60 | 64 | 4.19 | 64 | 4.35 | 64 | 4.34 | 60.5 | 1.45 | 0.545 | – |
| O=C(c1cc(C(F)(F)F)no1)N1CCCC(c2cc3ncc(-c4ccccc4)cc3[nH]2)C1 (configuration not stated) | 4.19 | 4.34 | 64 | 1350 | 196 | – | – | 4.59 | – | 59.7 | 4.19 | 64 | 4.19 | 64 | 4.19 | 64 | 4.45 | 59.6 | – | 0.307 | selectivity ratio (in vitro [6]): 1.79; fraction unbound at 0.5 h, 0.5 µM (in vitro [10]): 0.157 |
| O=C(Nc1cccc(-c2cc3ncccc3[nH]2)c1)c1ccccc1 | 4.19 | 4.19 | 64 | ≥ 392 | 363 | ≥ 1670 | 522 | 3.88 | 30.7 | 64 | 5.68 | 3.8 | 4.19 | 64 | 5.34 | 23.7 | 4.28 | 64 | 13.9 | 0.606 | – |
| O=C(c1ccc(F)cc1)N1CCCC(c2cc3ncccc3[nH]2)C1 (configuration not stated) | 4.19 | 4.19 | 64 | 41.3 | 38.3 | 1080 | 337 | 2.86 | 6.38 | 64 | 5.00 | 44.1 | 4.19 | 64 | 4.48 | 60.7 | 4.19 | 64 | 1.98 | 0.625 | – |
| O=C(c1ccc(F)cc1)N1CCCC(c2cc3nc(Cl)ccc3[nH]2)C1 (configuration not stated) | 4.19 | 4.19 | 64 | 125 | 78.4 | 1390 | 294 | 3.52 | – | 64 | 4.19 | 64 | 4.19 | 64 | 5.61 | 15.1 | 4.19 | 64 | 26 | 15 | fraction unbound at 0.5 h, 0.5 µM (in vitro [10]): 0.676 |
| CCC(=O)N1CCCC(c2nc3ncc(Cl)cc3[nH]2)C1 (configuration not stated) | 4.19 | 4.19 | 64 | < 28.3 | < 23 | 472 | 128 | 2.17 | – | 64 | 4.19 | 64 | 4.19 | 64 | 4.38 | 64 | 4.19 | 64 | 1.53 | 9.01 | fraction unbound at 0.5 h, 0.5 µM (in vitro [10]): 0.866 |
| O=C(c1ccccc1)N1C=C(c2cc3ncccc3[nH]2)CCC1 | 4.19 | 4.19 | 64 | ≥ 257 | 238 | ≥ 3320 | 1040 | 2.96 | 73.8 | 64 | 6.06 | 16 | 4.19 | 64 | 4.19 | 64 | 4.46 | 64 | – | 2.99 | selectivity ratio (in vitro [6]): 1.84 |
| O=C(c1ccc(F)cc1)N1CCCC(c2cc3nc(N4CCCC4)ccc3[nH]2)C1 (configuration not stated) | 4.31 | 4.34 | 64 | 92.5 | 50.1 | 1960 to 2410 | 441 to 444 | 3.45 | 5.86 | 59.7 | 5.08 | 31 | 4.36 | 60.8 | 5.10 | 14.1 | 4.38 | 59.6 | 6.07 | 0.152 to 0.228 | fraction unbound at 0.5 h, 0.5 µM (in vitro [10]): 0.586 to 0.722 |
| COc1cc(OC)c2cc(C(=O)N3CCCC(c4cc5ncccc5[nH]4)C3)[nH]c2c1 (configuration not stated) | 4.71 | 4.65 | 29.5 | 838 | – | 2420 | – | – | 18.8 | 29.9 | 5.99 | 3.13 | 4.71 | 29.5 | 5.14 | 24.4 | 4.73 | 29.8 | 2.65 | – | selectivity ratio (in vitro [6]): 1.07 |
